In assay [1] the test system is inflammatory sensitization induced by carrageenan. Nature of the assay: Sensitivity to thermal stimulation (avoidance time) in carrageenan-injected mice. The note with it: 10 μl of 0.1% carrageenan 3 h before, 10 μl of 1 mM substance into hind paw, FIG. 4. It counts as in vivo.
Procedure: Equal amount of AP18 (Biomol, USA), the TRPA1 specific inhibitor, was injected into the positive control. Avoidance time was measured by using thermal stimulator (Ugo basile plant test, Italy). Each group was composed of 5 mice and beam injection was performed four times, which were averaged.
In assay [2] the test system is pain induced by cinnamaldehyde. The assay is described as follows: Acute hind paw licking/flicking behaviors in mice (cinnamaldehyde-induced pain, normal or inflammatory condition). It counts as in vivo. The following applies: hind paw injection, 10 minutes, substance injected alone, FIG. 3a.
Procedure: The time spent for the hind paw licking/flicking behaviors in mice were measured according to the method of Bandell M, et al. (Neuron 41:849-857, 2004) and Moqrich A, et al. (Science 307:1468-1472, 2005), for 10 minutes. • Control: non-treatment; • Experimental group 1. […] 300 μM of CA; • Experimental group 3.

`CC(=C\c1ccc(Cl)cc1)/C(C)=N/O` [AP18]: the “Sensitivity against thermal stimulation (avoidance time)” value in assay [1] is given as “almost no effects”.

Turning to `O=CC=Cc1ccccc1` [cinnamaldehyde], in assay [2], the “Time spent for hind paw licking/flicking behaviors, substance alone” value is on record as “increased the time spent for the behaviors”.

These data come from patent US8022050B2, “Compound for inhibiting TRPA1 function and use thereof” (Korea University Industry and Academic Collaboration …, priority 2008, dated 2011).
